Experimental data: ChEMBL document CHEMBL1201862, “PubChem BioAssay data set” (2004)
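Method: 48-hour compound exposure of cells in 96-well plates, five concentrations, linear interpolation of endpoints. At the GI50, growth is halved.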 Calls of active or inactive are those of the source. No stated cut-off is given here; in the data, active = GI50 up to about 1.1 µM and inactive = higher. Where a SMILES comes first, the peptide text is derived from it. [ ]: non-standard residue; d: D form. The star is where a group is joined. ξ: configuration not given here. X4 = COc1ccc(C(N*)c2ccc(OC)cc2)cc1; NMeF = CN[C@@H](Cc1ccccc1)C(=O)O; NMeD = CN[C@@H](CC(=O)O)C(=O)O; NMeV = CN[C@H](C(=O)O)C(C)C; ξNMeV = CNC(C(=O)O)C(C)C; Boc = CC(C)(C)OC(=O)*; ξNMeA = CNC(C)C(=O)O; ξV = CC(C)C(N)C(=O)O

Key:
Experiment in all cases: inhibition of tumour cell growth, NCI panel, 48 h
DMS-114 = system: DMS-114
DMS-273 = system: DMS-273
HOP-18 = system: HOP-18
LXFL 529 = system: LXFL 529
M19-MEL = system: M19-MEL
SNB-78 = system: SNB-78
XF498 = system: XF498
KM-20L2 = system: KM-20L2
RXF 631 = system: RXF 631

SMILES | GI50 (DMS-114) | GI50 (DMS-273) | GI50 (HOP-18) | GI50 (LXFL 529) | GI50 (M19-MEL) | GI50 (SNB-78) | GI50 (XF498) | GI50 (KM-20L2) | GI50 (RXF 631)
Cc1c(CNc2ccc(C(=O)NC(CC(=O)O)C(=O)O)cc2)ccc2nc(N)nc(N)c12 (stereo not given) | < 0.01 µM (active) | < 0.01 µM (active) | 0.867 µM (active) | < 0.01 µM (active) | 0.122 µM (active) | > 100 µM (inactive) | 68.1 µM (inactive) | – | –
c1ccc([P+](CCC[P+](c2ccccc2)(c2ccccc2)c2ccccc2)(c2ccccc2)c2ccccc2)cc1 | 16.5 µM (inactive) | 9.91 µM (inactive) | 54.7 µM (inactive) | 11.3 µM (inactive) | 19.9 µM (inactive) | 52.8 µM (inactive) | 23.7 µM (inactive) | 33.5 µM (inactive) | > 100 µM (inactive)
Cc1ccc(C2=NN(C)COC2C(F)(F)F)cc1 (stereo not given) | > 100 µM (inactive) | > 100 µM (inactive) | > 100 µM (inactive) | > 100 µM (inactive) | > 100 µM (inactive) | > 100 µM (inactive) | – | > 100 µM (inactive) | > 100 µM (inactive)
COc1ccc(CC2(Cc3ccc(OC)cc3)CCOC2=O)cc1 | 23.9 µM (inactive) | – | – | > 100 µM (inactive) | > 100 µM (inactive) | – | 0.582 µM (active) | – | –
CCOC(=O)/C(=C\c1ccc[nH]1)C(=O)c1ccccc1 | 34.3 µM (inactive) | 26.2 µM (inactive) | 78.9 µM (inactive) | > 100 µM (inactive) | > 100 µM (inactive) | > 100 µM (inactive) | > 100 µM (inactive) | > 100 µM (inactive) | > 100 µM (inactive)
CCOC(=O)N1CCN(C=S)CC1 | > 100 µM (inactive) | > 100 µM (inactive) | > 100 µM (inactive) | > 100 µM (inactive) | > 100 µM (inactive) | > 100 µM (inactive) | – | > 100 µM (inactive) | > 100 µM (inactive)
O=S(=O)(c1ccccc1)C1(C2(S(=O)(=O)c3ccccc3)CCN=N2)CCN=N1 (stereo not given) | > 100 µM (inactive) | > 100 µM (inactive) | – | > 100 µM (inactive) | > 100 µM (inactive) | – | > 100 µM (inactive) | – | –
O=C(/C=C/c1ccccc1Cl)c1ccc(Cl)cc1Cl | 11.8 µM (inactive) | 15.7 µM (inactive) | 17 µM (inactive) | 16.2 µM (inactive) | 18 µM (inactive) | 19.1 µM (inactive) | – | 15.1 µM (inactive) | 19 µM (inactive)
Cc1cc2c(C)nn(Cc3ccccc3)c2c(C(N)=O)c1C | > 100 µM (inactive) | > 100 µM (inactive) | – | > 100 µM (inactive) | > 100 µM (inactive) | > 100 µM (inactive) | > 100 µM (inactive) | > 100 µM (inactive) | –
Clc1ncnc2c1ncn2CCCCCCCCCCCCn1cnc2c(Cl)ncnc21 | 1.67 µM (inactive) | 2.71 µM (inactive) | 17.1 µM (inactive) | 4.44 µM (inactive) | 2.27 µM (inactive) | 3.56 µM (inactive) | 9.38 µM (inactive) | 16.1 µM (inactive) | –
CC(C)(c1ccccc1)c1ccc(Oc2ccc(C#N)c(C#N)c2)cc1 | 4.98 µM (inactive) | – | > 10 µM (inactive) | 24.4 µM (inactive) | 79.1 µM (inactive) | > 10 µM (inactive) | > 10 µM (inactive) | > 10 µM (inactive) | > 10 µM (inactive)
Cc1ccc(/C=N/NS(=O)(=O)c2ccccc2)c(C)c1 | > 100 µM (inactive) | > 100 µM (inactive) | > 100 µM (inactive) | > 100 µM (inactive) | > 100 µM (inactive) | > 100 µM (inactive) | > 100 µM (inactive) | > 100 µM (inactive) | > 100 µM (inactive)
Cc1cc(C)nc(NS(=O)(=O)c2ccc(Nc3c4ccc(Cl)cc4nc4c(C(=O)Nc5ccc(S(=O)(=O)N=C(N)N)cc5)cccc34)cc2)n1 | 41.7 µM (inactive) | – | – | 66.7 µM (inactive) | > 100 µM (inactive) | 39.9 µM (inactive) | > 100 µM (inactive) | > 100 µM (inactive) | –
COc1ccccc1NC(=O)C1=C(C)NC(C)=C(C(=O)Nc2ccccc2OC)C1c1cccc2ccccc12 | 25.6 µM (inactive) | 80.9 µM (inactive) | 76.7 µM (inactive) | 28.1 µM (inactive) | 90.4 µM (inactive) | 4.44 µM (inactive) | 45.3 µM (inactive) | > 100 µM (inactive) | 87.9 µM (inactive)
CCCCCCCCCCCCCCCC(=O)OCC1OC(OC)C(NC(=O)N(CCCl)N=O)C(O)C1O (stereo not given) | 13.2 µM (inactive) | 10.2 µM (inactive) | 32.4 µM (inactive) | 16.3 µM (inactive) | 22.5 µM (inactive) | 24.5 µM (inactive) | 7.66 µM (inactive) | 20.3 µM (inactive) | –
CC(C)(C)c1cc(C(OCCl)(C(F)(F)F)C(F)(F)F)c2c(c1)C(C(F)(F)F)(C(F)(F)F)OC21c2ccccc2C(=O)c2ccccc21 | > 100 µM (inactive) | > 100 µM (inactive) | > 100 µM (inactive) | > 100 µM (inactive) | > 100 µM (inactive) | > 100 µM (inactive) | 34 µM (inactive) | > 100 µM (inactive) | > 100 µM (inactive)
CCO/C(CCn1[nH]c(=O)c(Cl)c(Cl)c1=O)=N\NC(=O)C(=O)NN | > 100 µM (inactive) | > 100 µM (inactive) | > 100 µM (inactive) | > 100 µM (inactive) | > 100 µM (inactive) | – | > 100 µM (inactive) | > 100 µM (inactive) | > 100 µM (inactive)
C[N+](C)(C)CC(=O)N/N=C(/Cc1nc2c3c(ccc2nc1O)C(=O)c1ccccc1C3=O)C(=O)Nc1ccc(Cl)c(Cl)c1 | 27 µM (inactive) | – | – | – | 38.2 µM (inactive) | – | – | > 100 µM (inactive) | 76.6 µM (inactive)
COc1ccc2nc3cc(Cl)ccc3c(Sc3ccc([N+](=O)[O-])cc3)c2c1 | > 10 µM (inactive) | > 10 µM (inactive) | > 10 µM (inactive) | > 10 µM (inactive) | > 10 µM (inactive) | > 10 µM (inactive) | > 10 µM (inactive) | > 10 µM (inactive) | > 10 µM (inactive)
C#CCNC(=O)ON1C(=O)CCC1=O | – | > 100 µM (inactive) | > 100 µM (inactive) | > 100 µM (inactive) | > 100 µM (inactive) | > 100 µM (inactive) | – | > 100 µM (inactive) | > 100 µM (inactive)
N=S(c1ccccc1[N+](=O)[O-])c1ccccc1[N+](=O)[O-] | – | 2.16 µM (inactive) | 6.11 µM (inactive) | 2.96 µM (inactive) | 3.3 µM (inactive) | 2.68 µM (inactive) | – | – | 1.8 µM (inactive)
Cn1c(=O)oc2cc(C3CCC(=O)N3Cc3ccc(Cl)cc3)ccc21 (stereo not given) | > 100 µM (inactive) | > 100 µM (inactive) | > 100 µM (inactive) | > 100 µM (inactive) | > 100 µM (inactive) | > 100 µM (inactive) | > 100 µM (inactive) | > 100 µM (inactive) | –
COc1cc2c(cc1OC)NC(=O)NC(Cc1ccc3c(c1)OCO3)CC2 (stereo not given) | > 100 µM (inactive) | > 100 µM (inactive) | – | > 100 µM (inactive) | > 100 µM (inactive) | > 100 µM (inactive) | > 100 µM (inactive) | > 100 µM (inactive) | –
c1ccc(CNc2ccc3[nH]c4cnccc4c3c2)cc1 | 14.8 µM (inactive) | 19.8 µM (inactive) | – | 16.6 µM (inactive) | 18.7 µM (inactive) | 20.9 µM (inactive) | 19.4 µM (inactive) | 16.2 µM (inactive) | 20.6 µM (inactive)
O=C(CCCCCCCCCCc1ccccc1)c1c(O)cccc1O | 20.7 µM (inactive) | 18.2 µM (inactive) | 29.1 µM (inactive) | 18.6 µM (inactive) | 20.7 µM (inactive) | 45.7 µM (inactive) | 20.2 µM (inactive) | 61.7 µM (inactive) | 30.8 µM (inactive)
COc1ccc(C2[C@H]3C(=O)N(c4ccc(Cc5ccc(N6C(=O)[C@@H]7ON(c8ccccc8)C(c8ccc(OC)cc8)[C@@H]7C6=O)cc5)cc4)C(=O)[C@H]3ON2c2ccccc2)cc1 (stereo not given in full) | – | > 100 µM (inactive) | > 100 µM (inactive) | > 100 µM (inactive) | > 100 µM (inactive) | > 100 µM (inactive) | – | > 100 µM (inactive) | –
[N-]=[N+]=N[C@H]1C[C@@H](CO)O[C@H]1n1cnc2c(N)ncnc21 | > 100 µM (inactive) | > 100 µM (inactive) | 0.202 µM (active) | > 100 µM (inactive) | > 100 µM (inactive) | > 100 µM (inactive) | 31.2 µM (inactive) | > 100 µM (inactive) | –
O=C(Cc1nc2ccccc2c(=O)n1-c1c(Cl)cccc1Cl)c1ccncc1 | 25.2 µM (inactive) | 19.4 µM (inactive) | 33.8 µM (inactive) | 27.7 µM (inactive) | 20.3 µM (inactive) | 34.1 µM (inactive) | – | 27.5 µM (inactive) | 23.9 µM (inactive)
COc1ccc(C(NC(=O)C[C@@H](C(=O)N(C)C(C)C(=O)O)N(C)C(=O)[C@@H]2CCCN2C(=O)[C@H](C(C)C)N(C)C(=O)C(C(C)C)N(C)C(=O)[C@H](Cc2ccccc2)N(C)C(=O)C(NC(=O)OC(C)(C)C)C(C)C)c2ccc(OC)cc2)cc1 (stereo not given in full) (Boc-[ξV][NMeF][ξNMeV][NMeV]P[NMeD](X4)[ξNMeA]-OH) | 16.5 µM (inactive) | 17.2 µM (inactive) | – | 14.7 µM (inactive) | 16.9 µM (inactive) | 15.8 µM (inactive) | 15.8 µM (inactive) | 19.9 µM (inactive) | –
CCCCCCCCCCCC1CC(=O)NCCCN(C)CCCCN(C)CCCN1C (stereo not given) [BUDMUNCHIAMINE A] | 1.78 µM (inactive) | 1.24 µM (inactive) | 1.77 µM (inactive) | 1.72 µM (inactive) | 1.76 µM (inactive) | 1.79 µM (inactive) | 1.65 µM (inactive) | 1.65 µM (inactive) | –
